Experimental data as given in PubChem BioAssay AID330 (DTP/NCI, 2004).
“And” between values parts separate entries of the source, which are not always exact repeats. Identical values can stand only once. Toxic doses and inconclusive results are not listed. Rule for the calls: active = survival T/C of 150% or more; inactive = T/C below 125% in these data.

System: P388 leukemia ip, CD2F1 mice, survival T/C
Assay: NCI In Vivo Anticancer Drug Screen. Data for tumor model P388 Leukemia (intraperitoneal) in CD2F1 (CDF1) mice
Details: endpoint: median survival time, higher = longer survival
Outline: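 Mice carrying the transplanted tumor received test compound or vehicle. Survival was recorded in each group, and the value is the treated-group measurement divided by that of the vehicle-treated control group.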

[1] = dose: 12.5 mg/kg/injection, schedule: Q01DX005 (ip), vehicle: saline with Tween-80
[2] = dose: 50.0 mg/kg/injection, schedule: Q01DX005 (ip), vehicle: saline with Tween-80
[3] = dose: 100.0 mg/kg/injection, schedule: Q01DX005 (ip), vehicle: saline with Tween-80
[4] = dose: 60.0 mg/kg/injection, schedule: Q01DX005 (ip), vehicle: Klucel (hydroxypropylcellulose) (HPC)
[5] = dose: 50.0 mg/kg/injection, schedule: Q01DX009 (ip), vehicle: Klucel (hydroxypropylcellulose) (HPC)
[6] = dose: 100.0 mg/kg/injection, schedule: Q01DX009 (ip), vehicle: Klucel (hydroxypropylcellulose) (HPC)
[7] = dose: 200.0 mg/kg/injection, schedule: Q01DX009 (ip), vehicle: Klucel (hydroxypropylcellulose) (HPC)

Measured: T/C

CCCCCCCCCC(=O)C1C(c2ccccc2)CC(=O)C(CCCCCCCC)C1c1ccccc1 (centres undefined)
inactive: [1] 87 % of control | dose: 25.0 mg/kg/injection, schedule: Q01DX005 (ip), vehicle: saline with Tween-80 98 % of control | [2] 109 % of control and 93 % of control | [3] 105 % of control | dose: 200.0 mg/kg/injection, schedule: Q01DX005 (ip), vehicle: saline with Tween-80 115 % of control

CCC1=C(C)CCN(C)C1Cc1ccc(OC)cc1 (centres undefined)
inactive: dose: 15.0 mg/kg/injection, schedule: Q01DX005 (ip), vehicle: Klucel (hydroxypropylcellulose) (HPC) 106 % of control | dose: 30.0 mg/kg/injection, schedule: Q01DX005 (ip), vehicle: Klucel (hydroxypropylcellulose) (HPC) 98 % of control | [4] 100 % of control and 102 % of control

[Cl][Hg][c]1ccccc1N=Nc1ccccc1I
inactive: dose: 12.5 mg/kg/injection, schedule: Q01DX009 (ip), vehicle: saline with Tween-80 101 % of control | dose: 25.0 mg/kg/injection, schedule: Q01DX009 (ip), vehicle: saline with Tween-80 96 % of control | dose: 50.0 mg/kg/injection, schedule: Q01DX009 (ip), vehicle: saline with Tween-80 113 % of control and 98 % of control | dose: 100.0 mg/kg/injection, schedule: Q01DX009 (ip), vehicle: saline with Tween-80 122 % of control and 94 % of control

c1ccc2c(c1)ccc1cc3cccc[n+]3cc12
inactive: dose: 0.5 mg/kg/injection, schedule: Q01DX009 (ip), vehicle: saline 92 % of control | dose: 1.0 mg/kg/injection, schedule: Q01DX009 (ip), vehicle: saline 103 % of control | dose: 2.0 mg/kg/injection, schedule: Q01DX009 (ip), vehicle: saline 92 % of control

CC(C)(C)CC(C)(C)NCC(O)COc1ccc(C(C)(C)c2ccc(OCC(O)CNC(C)(C)CC(C)(C)C)cc2)cc1 (centres undefined)
inactive: dose: 3.13 mg/kg/injection, schedule: Q01DX009 (ip), vehicle: other 104 % of control | dose: 3.13 mg/kg/injection, schedule: Q04DX003 (ip), vehicle: other 108 % of control | dose: 6.25 mg/kg/injection, schedule: Q01DX009 (ip), vehicle: other 90 % of control | dose: 6.25 mg/kg/injection, schedule: Q04DX003 (ip), vehicle: other 100 % of control

N#CCCCCCCCCCCCC1C=CCC1 (centres undefined)
inactive: dose: 100.0 mg/kg/injection, schedule: Q01DX001 (ip), vehicle: saline 100 % of control | dose: 200.0 mg/kg/injection, schedule: Q01DX001 (ip), vehicle: saline 98 % of control | dose: 400.0 mg/kg/injection, schedule: Q01DX001 (ip), vehicle: saline 100 % of control

C1CN2CCC1C1(C2)SSC2(CN3CCC2CC3)S1 (centres undefined)
inactive: dose: 6.25 mg/kg/injection, schedule: Q01DX009 (ip), vehicle: saline 100 % of control | dose: 12.5 mg/kg/injection, schedule: Q01DX009 (ip), vehicle: saline 95 % of control | dose: 25.0 mg/kg/injection, schedule: Q01DX009 (ip), vehicle: saline 95 % of control

O=C1C(C(=Nc2cccc(Cl)c2)c2ccccc2)=C(O)c2ccccc21
inactive: dose: 25.0 mg/kg/injection, schedule: Q04DX002 (ip), vehicle: saline with Tween-80 93 % of control | dose: 50.0 mg/kg/injection, schedule: Q04DX002 (ip), vehicle: saline with Tween-80 95 % of control

O=C1C2CCCN2C(=S)N1c1ccccc1 (centres undefined)
inactive: [4] 96 % of control | dose: 120.0 mg/kg/injection, schedule: Q01DX005 (ip), vehicle: Klucel (hydroxypropylcellulose) (HPC) 91 % of control | dose: 240.0 mg/kg/injection, schedule: Q01DX005 (ip), vehicle: Klucel (hydroxypropylcellulose) (HPC) 94 % of control

NS(=O)(=O)c1ccc(NC(=S)S)cc1
inactive: [5] 107 % of control | [6] 107 % of control | [7] 91 % of control

Cc1ccc(C2ON2S(=O)(=O)c2ccc(C)cc2)cc1 (centres undefined)
inactive: [5] 113 % of control | [6] 105 % of control | [7] 100 % of control

C/C(=N\NC(=S)Nc1ccc(C(=O)O)cc1)c1ccc2ccccc2n1
inactive: [2] 105 % of control | [3] 114 % of control

CCCCCCC(=O)/C=C/c1ccccc1OC(=O)/C=C/c1ccccc1
inactive: dose: 50.0 mg/kg/injection, schedule: Q01DX005 (ip), vehicle: saline + alcohol 96 % of control | dose: 100.0 mg/kg/injection, schedule: Q01DX005 (ip), vehicle: saline + alcohol 92 % of control

c1ccc2c(c1)c1c(c3ccccc32)CNCC1
inactive: dose: 3.12 mg/kg/injection, schedule: Q01DX005 (ip), vehicle: saline with Tween-80 97 % of control | dose: 6.25 mg/kg/injection, schedule: Q01DX005 (ip), vehicle: saline with Tween-80 95 % of control | [1] 101 % of control and 95 % of control | [2] 117 % of control
